MED data for 26 molecules are collected here from ChEMBL document CHEMBL3045541, “Synthesis and systemic fungicidal activity of silicon-containing azole derivatives” (2000).

Molecules are shown by their SMILES.

This test relates to Rhizoctonia solani. Nature of the test: Fungicidal activity against Rhizoctonia solani infected Oryza sativa var. Nipponbare assessed per 10 […] applied by submerged-treatment 7 days prior to infection measured after 5 days. Format: functional.

Molecule `CC(C)(n1cncn1)C(O)(C[Si](C)(C)C)c1ccc(F)cc1` (stereo unspecified) gave an MED greater than 100 g.
The value for `C=CC(C(O)(Cn1cncn1)c1ccc(F)cc1)[Si](C)(C)C` (stereo unspecified) was 100 g; that for `C[Si](C)(C)C#CC(O)(Cn1cncn1)c1ccc(Cl)cc1Cl` (stereo unspecified) was greater than 100 g; that for `C[Si](C)(C)CC(O)(Cn1cncn1)c1ccc(Cl)cc1` (stereo unspecified) was 25 g.
The result for `CC(C)Oc1cccc(NC(=O)c2ccccc2C(F)(F)F)c1` [FLUTOLANIL] reads greater than 100 g; that for `C[Si](C)(C)CC(O)(Cn1cncn1)c1ccc(C(F)(F)F)cc1` (stereo unspecified), 100 g; that for `C[Si](C)(C)CC(O)(Cn1cncn1)c1cccc(F)c1` (stereo unspecified), 50 g.
The value for `C[Si](C)(C)CC(O)(Cn1ccnn1)c1ccc(F)cc1` (stereo unspecified) was greater than 100 g; that for `C[Si](C)(C)CC(O)(Cn1nccn1)c1ccc(F)cc1` (stereo unspecified) was greater than 100 g; that for `C[Si](C)(C)CCC(O)(Cn1cncn1)c1ccc(F)cc1` (stereo unspecified) was greater than 100 g.
The molecule `C[Si](C)(C)CC(O)(Cn1cncn1)c1ccc(F)cc1F` (stereo unspecified) returned an MED of 100 g.
The value for `CCC(C(O)(Cn1cncn1)c1ccc(F)cc1)[Si](C)(C)C` (stereo unspecified) was 50 g; that for `C[Si](C)(C)CC(O)(Cn1ccnc1)c1ccc(F)cc1` (stereo unspecified) was greater than 100 g.
The value for `C[Si](C)(C)CC(O)(Cn1cncn1)c1ccc(F)cc1` (stereo unspecified) [SIMECONAZOLE] was 12.5 g.
The result for `C[Si](C)(C)CC(O)(Cn1cncn1)c1ccccc1` (stereo unspecified) reads 50 g.
`C[Si](C)(C)CC(O)(Cn1cncn1)c1ccc(Cl)cc1Cl` (stereo unspecified): the MED is on record as 100 g.
The value for `CCCCC(O)(Cn1cncn1)c1ccc(Cl)cc1Cl` (stereo unspecified) [HEXACONAZOLE] was 50 g.
The value for `C[Si](C)(C)CC(O)(Cn1cnnc1)c1ccc(F)cc1` (stereo unspecified) was greater than 100 g; that for `C[Si](C)(C)CC(O)(Cn1cncn1)c1ccc(Br)cc1` (stereo unspecified) was greater than 100 g.
The value for `Cc1ccc(C(O)(Cn2cncn2)C[Si](C)(C)C)cc1` (stereo unspecified) was greater than 100 g.
As to `C[Si](C)(C)CC(O)(Cn1cncn1)c1ccc(Cl)cc1F` (stereo unspecified), the MED is 50 g.
The value for `C[Si](C)(C)CC(O)(Cn1cncn1)c1ccccc1F` (stereo unspecified) was 100 g; that for `CC(n1cncn1)C(O)(C[Si](C)(C)C)c1ccc(F)cc1` (stereo unspecified) was 50 g.
The result for `C=CC(C(O)(Cn1cncn1)c1ccc(Cl)cc1)[Si](C)(C)C` (stereo unspecified) reads greater than 100 g.
The result for `CCC(n1cncn1)C(O)(C[Si](C)(C)C)c1ccc(F)cc1` (stereo unspecified) reads greater than 100 g.
`COc1ccc(C(O)(Cn2cncn2)C[Si](C)(C)C)cc1` (stereo unspecified) came in with an MED greater than 100 g.
